According to patent US5329010A, “Quinone derivatives” (Eisai Co., Ltd., priority 1991, dated 1994):

Tests used:
[1] = test system: production of leukotriene B4 (LTB4), rat abdominal glycogenic infiltration cell; experiment: Inhibitory activity against production of leukotriene B4 (LTB4) from rat abdominal infiltration cell; type: cell-based, rat (Fisher male); details: 10 min, cells 5×10^6/ml, calcium ionophore A-23187 2 μg/ml, 37° C., enzyme immunoassay
Experimental: (§1) Inhibitory activity against the production of leukotriene B4 (LTB4) and thromboxane B2 (TxB2 from rat abdominal infiltration cell
(§2) 10 ml of a 6% (w/v) solution of glycogen (Type II from Oyster, Sigma) in physiological saline was injected into the abdominal cavity of a Fisher male rat having a weight of 150 to 200 g. After 20 to 24 hours, the abdominal exudation cells were recovered therefrom, washed and suspended in the Hanks' balanced salt solution (HBSS) in a concentration of 5×10^6 /ml. This suspension was poured onto a 96-well culture plate (Costar: registered trademark) in which a test drug diluted to a predetermined concentration had been put in an amount of 10 μl/well, in an amount of 100 μl/well. The resulting plate was incubated at 37° C. for 5 minutes. Calcium ionophore A-23187 [Calbiochem (registered trademark)] was added in a final concentration of 2 μg/ml. After the reaction at 37° C. for additional 10 minutes, the plate was put on ice and a BW755C solution was added in a final concentration of 100 μM. The resulting plate was centrifuged at 15000 rpm for 10 minutes. The supernatant was recovered and the amounts of LTB4 and TxB2 in the supernatant were determined by enzyme immunoassay with an EIA kit mfd. by Cayman.

[2] = test system: production of thromboxane B2 (TxB2), rat abdominal glycogenic infiltration cell; experiment: Inhibitory activity against production of thromboxane B2 (TxB2) from rat abdominal infiltration cell; type: cell-based, rat (Fisher male); details: 10 min, cells 5×10^6/ml, calcium ionophore A-23187 2 μg/ml, 37° C., enzyme immunoassay
Experimental: as §1, §2
(Thromboxane A2 is very unstable to treat and naturally turns to thromboxane B2 in 10-20 seconds in the human body. Therefore, thromboxane B2 was used in the tests above).

[3] = Repetitive Oral Administration Test for 4 Weeks on Rats; type: in vivo, rat (female Slc:SD); details: once a day, each of 30 and 100 mg/kg
Experimental: Repetitive Oral Administration Test for 4 Weeks on Rats
30 and 100 mg/kg of the compound obtained in the Example 3 was orally administered to female Slc:SD rats aged 7 weeks (each group consisting of 5 animals) for 4 weeks. This compound was suspended in a 0.5 wt. % aqueous solution of methylcellulose and administered once a day.
During the administration period, the general conditions of the animals were observed and the body weight and feed intake were measured. After the completion of the final administration, hematological examination, hemo-biochemical examination, urinalysis and autopsy were effected and organs were weighed. Further, livers and kidneys were patho-histologicallyexamined under an optical microscope.

[4] = Repetitive Oral Administration Test for 4 Weeks on Dogs; set-up: species or system dog (female beagle); details: in vivo, concluded after rat and dog tests, read-out: toxicologically non-influential dose
Experimental: Repetitive Oral Administration Test for 4 Weeks on Dogs
30 and 100 mg/kg of the compound obtained in the Example 3 was orally administered to female beagles aged 8 months (each group consisting of 2 animals) for 4 weeks. This compound was triturated with lactose and administered once a day.
During the administration period, the general conditions of the animals were observed and the body weight and feed intake were measured. After the completion of the first, seventh and final administrations, hemo-biochemical examination was effected. After the completion of the seventh and final administrations, further, hematological examination and urinalysis were effected. Furthermore, autopsy was effected and organs were weighed after the final administration. Livers, kidneys and adrenal bodies were patho-histologically examined under an optical microscope.

Compound | IC50 [1] [nM] | IC50 [2] [nM] | change in general conditions, body weight, feed intake, hematology, hemo-biochemistry, urinalysis, autopsy, organ weight, histology [3] | NOAEL at 672 h [4] [mg/kg]
COC1=C(C)C(=O)C(/C=C(\CCCCCc2cccnc2)C(=O)O)=C(C)C1=O [Ex. 3, (E)-3-(2-Methoxy-3,6-dimethyl-1,4-benzoquinon-5-yl)-2-[5-(3-pyridyl)pentyl]-2-propenoic acid] | 1160 | 50 | No change was observed | 100
COc1c(C)c(O)c(/C=C(\CCCCCc2cccnc2)C(=O)O)c(C)c1O [Ex. 4, (E)-3-(2,5-Dihydroxy-4-methoxy-3,6-dimethylphenyl)-2-[5-(3-pyridyl)pentyl]-2-propenoic acid] | 7860 | 460 |  | 
CCCCCCCOc1c(C)c(OC)c(/C=C(\CCCCCc2cccnc2)C(=O)OCC)c(C)c1OC [Ex. 5] | 3160 | 480 |  | 
CCCCOc1c(C)c(OC)c(C)c(/C=C(\CCCCCc2cccnc2)C(=O)OCC)c1OC [Ex. 7] | 1390 | 90 |  | 
CCCCCCCOc1c(C)c(OC)c(C)c(/C=C(\CCCCCc2cccnc2)C(=O)OCC)c1OC [Ex. 9] | 3160 | 160 |  | 
CCOC(=O)/C(=C/c1c(C)c(OC)c(OC)c(C)c1OC)CCCc1cccnc1 [Ex. 10] | 320 | 420 |  | 
